Test results: ChEMBL document CHEMBL1201862, “PubChem BioAssay data set” (2004)
One block for each compound: values may come before it. Active and inactive are the calls of the source.

Key:
[1] = target: 5-hydroxytryptamine receptor 2A (Mus musculus, UniProt P35363); assay type: functional, cell-based;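 note: CHO-K1 cells with tagged receptor and beta-arrestin; agonist potency measured as compound-induced activation of the receptor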
Mu-type opioid receptor = Mu-type opioid receptor (Homo sapiens, UniProt P35372); assay type: functional, cell-based;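 note: U2OS cells with beta-arrestin recruitment to OPRM1 by beta-gal complementation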
Chain of Mu-type opioid receptor (P35372 whole entry): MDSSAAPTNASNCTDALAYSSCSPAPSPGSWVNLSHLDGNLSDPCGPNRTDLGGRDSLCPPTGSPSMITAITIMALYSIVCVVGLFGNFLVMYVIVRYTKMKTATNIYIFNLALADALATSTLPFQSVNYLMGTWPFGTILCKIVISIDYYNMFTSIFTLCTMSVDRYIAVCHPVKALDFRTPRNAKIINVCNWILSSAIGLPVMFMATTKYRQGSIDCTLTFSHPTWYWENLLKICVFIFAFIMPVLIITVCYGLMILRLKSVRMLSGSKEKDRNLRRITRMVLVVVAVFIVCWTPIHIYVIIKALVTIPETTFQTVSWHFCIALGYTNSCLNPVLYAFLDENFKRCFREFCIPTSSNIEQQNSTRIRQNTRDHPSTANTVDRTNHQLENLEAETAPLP

Protein Wnt-3a = Protein Wnt-3a (Mus musculus, UniProt P27467); assay: SAR analysis of small molecule antagonists of Gli-SUFU in a Wnt3a luminescent reporter assay.; assay type: functional
Chain of Protein Wnt-3a (P27467 whole entry): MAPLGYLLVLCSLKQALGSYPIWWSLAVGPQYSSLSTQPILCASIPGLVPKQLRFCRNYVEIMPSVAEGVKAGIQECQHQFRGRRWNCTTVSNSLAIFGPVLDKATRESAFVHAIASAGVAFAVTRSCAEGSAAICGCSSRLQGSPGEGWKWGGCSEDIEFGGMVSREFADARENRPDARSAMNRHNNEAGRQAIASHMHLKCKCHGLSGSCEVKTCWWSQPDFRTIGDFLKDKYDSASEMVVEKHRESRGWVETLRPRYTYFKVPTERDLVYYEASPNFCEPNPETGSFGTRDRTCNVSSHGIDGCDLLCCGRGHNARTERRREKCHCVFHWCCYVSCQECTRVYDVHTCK

[2] = T. cruzi growth inhibition in host cells, dose response, cell-based, plate reader, dry powder, set 2 (AID 652275); assay type: functional
[3] = target: T1, Sentrin-specific protease 8 (Homo sapiens, UniProt Q96LD8); assay type: functional;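 note: kinetic enzyme assay of SENP8 cleaving a Nedd8 protein substrate, dose-response confirmation of screening hits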
T1 sequence (Q96LD8 whole entry): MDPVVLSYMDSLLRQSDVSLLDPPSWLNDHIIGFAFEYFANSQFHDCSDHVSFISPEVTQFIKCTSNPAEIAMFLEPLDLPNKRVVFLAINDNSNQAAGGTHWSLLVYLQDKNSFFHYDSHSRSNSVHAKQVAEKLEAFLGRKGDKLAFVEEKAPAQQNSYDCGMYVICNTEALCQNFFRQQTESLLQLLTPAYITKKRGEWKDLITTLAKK

Caspase-6 = Caspase-6 (Homo sapiens, UniProt P55212); assay: human caspase-6 inhibitors, dose response, biochemical, VEID-R110 fluorescence, cherry-pick (AID 720632)
Chain of Caspase-6 (P55212 24-179 limits assumed): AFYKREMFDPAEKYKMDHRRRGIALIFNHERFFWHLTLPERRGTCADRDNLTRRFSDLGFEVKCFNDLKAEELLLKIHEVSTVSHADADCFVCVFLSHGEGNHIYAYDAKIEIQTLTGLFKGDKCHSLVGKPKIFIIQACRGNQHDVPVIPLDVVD
Chain of Caspase-6 (P55212 194-293 limits assumed): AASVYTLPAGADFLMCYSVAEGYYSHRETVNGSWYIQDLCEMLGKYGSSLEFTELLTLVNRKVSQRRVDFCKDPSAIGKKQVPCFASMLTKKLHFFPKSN

HeLa = assay: HeLa cell cytotoxicity, dose response, cytotoxicity control, ATP luminescence, cherry-pick samples (AID 687004); assay type: functional, cell-based; details: Homo sapiens
[4] = NIH:OVCAR-3 ovarian cancer cell cytotoxicity, dose response, PAX8 inhibitor project, plate reader, dry powder samples (AID 743044); assay type: functional, cell-based
Paired box protein Pax-8 = Paired box protein Pax-8 (Homo sapiens, UniProt Q06710); assay: inhibitors of PAX8-driven TPO luciferase reporter, dose response, RMG-I cells, cherry-pick (AID 687027); assay type: functional, cell-based;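 note: luciferase reporter driven by Pax8 target thyroperoxidase promoter measured by SteadyGlo luminescence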
Chain of Paired box protein Pax-8 (Q06710 whole entry): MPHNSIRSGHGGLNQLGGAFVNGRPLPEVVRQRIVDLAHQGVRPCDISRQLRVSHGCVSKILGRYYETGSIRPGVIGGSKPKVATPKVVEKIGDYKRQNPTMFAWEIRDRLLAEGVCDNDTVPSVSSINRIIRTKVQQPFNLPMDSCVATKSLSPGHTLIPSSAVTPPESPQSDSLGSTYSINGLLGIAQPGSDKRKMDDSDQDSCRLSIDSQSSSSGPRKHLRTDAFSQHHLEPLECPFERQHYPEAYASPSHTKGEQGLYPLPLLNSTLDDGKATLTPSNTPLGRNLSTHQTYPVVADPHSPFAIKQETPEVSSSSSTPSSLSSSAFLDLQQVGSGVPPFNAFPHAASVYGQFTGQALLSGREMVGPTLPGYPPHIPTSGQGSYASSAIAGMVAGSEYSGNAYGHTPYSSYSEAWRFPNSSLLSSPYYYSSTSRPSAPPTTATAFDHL

[5] = A2780 ovarian cancer cell cytotoxicity, dose response, cytotoxicity control, plate reader, dry powder samples (AID 743046); assay type: functional, cell-based
[6] = non-specific cell cytotoxicity, dose response, cytotoxicity control for PAX8 inhibitor project, plate reader, dry powder samples (AID 743021); assay type: functional, cell-based
[7] = cytotoxicity in OVCAR8 ovarian cancer cells, dose response, PAX8 project, cell-based, plate reader, dry powder samples (AID 743197); assay type: functional; details: OVCAR-8
cells = assay type: functional, cell-based; details: HEK-CNG
Cytochrome P450 2C9 = Cytochrome P450 2C9 (Homo sapiens, UniProt P11712)
[8] = target: T2, COUP transcription factor 2 (Homo sapiens, UniProt P24468); assay: Luminescence-based cell-based high throughput dose response assay to identify inhibitors of COUP-TFII (NR2F2).; assay type: functional;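 note: HEK293 cells transiently cotransfected with COUP-TFII expression vector and reporter; luciferase reporter luminescence driven by COUP-TFII from the pX2-168 reporter plasmid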
T2 sequence (P24468 whole entry): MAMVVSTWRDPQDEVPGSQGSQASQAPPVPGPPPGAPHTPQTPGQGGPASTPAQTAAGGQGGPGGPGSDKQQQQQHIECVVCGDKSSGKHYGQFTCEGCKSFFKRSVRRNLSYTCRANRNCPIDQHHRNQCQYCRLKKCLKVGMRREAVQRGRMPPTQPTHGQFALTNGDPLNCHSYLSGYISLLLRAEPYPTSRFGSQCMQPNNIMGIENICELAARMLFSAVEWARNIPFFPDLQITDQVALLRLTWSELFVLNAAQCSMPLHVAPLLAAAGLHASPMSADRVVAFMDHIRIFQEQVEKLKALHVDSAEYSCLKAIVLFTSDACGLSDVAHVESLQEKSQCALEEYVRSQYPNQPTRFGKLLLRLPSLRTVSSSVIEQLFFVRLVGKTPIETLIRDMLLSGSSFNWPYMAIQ

Galanin receptor type 3 = Galanin receptor type 3 (Homo sapiens, UniProt O60755); assay: Fluorescence-based cell-based primary high throughput dose response assay to identify antagonists of the Galanin Receptor 3 (GalR3).; assay type: functional
Chain of Galanin receptor type 3 (O60755 whole entry): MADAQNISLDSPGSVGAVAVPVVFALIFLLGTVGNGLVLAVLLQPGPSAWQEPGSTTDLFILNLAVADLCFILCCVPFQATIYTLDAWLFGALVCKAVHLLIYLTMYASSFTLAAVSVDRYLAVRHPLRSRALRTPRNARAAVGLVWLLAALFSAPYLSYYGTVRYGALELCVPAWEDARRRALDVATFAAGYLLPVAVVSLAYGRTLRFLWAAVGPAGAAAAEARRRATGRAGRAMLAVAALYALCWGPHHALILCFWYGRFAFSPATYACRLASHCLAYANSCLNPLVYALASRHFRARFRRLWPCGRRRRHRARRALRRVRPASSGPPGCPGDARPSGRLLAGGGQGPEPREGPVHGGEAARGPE

Interleukin-8 = target: T3, Interleukin-8 (Homo sapiens, UniProt P10145); assay: Dose Response confirmation of uHTS small molecule hits for cystic fibrosis induced NFkb Inhibitors in a PAF-induced IL8 counterscreen.; assay type: functional; details: read-out: IC50_Mean
T3 sequence (P10145 whole entry): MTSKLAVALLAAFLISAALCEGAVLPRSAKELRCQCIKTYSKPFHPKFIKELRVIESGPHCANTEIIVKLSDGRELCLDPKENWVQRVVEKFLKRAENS

[9] = target: Heat shock protein HSP 90-alpha (Homo sapiens, UniProt P07900); assay type: functional, organism-based
[10] = target: 1-phosphatidylinositol 4,5-bisphosphate phosphodiesterase gamma-1 (Homo sapiens, UniProt P19174); assay: Counterscreen for inhibitors of phospholipase C isozymes (PLC-B3): Fluorescence-based biochemical high throughput dose response assay to identify inhibitors of phospholipase C isozymes (PLC-gamma1).
Chain of 1-phosphatidylinositol 4,5-bisphosphate phosphodiesterase gamma-1 (P19174 whole entry): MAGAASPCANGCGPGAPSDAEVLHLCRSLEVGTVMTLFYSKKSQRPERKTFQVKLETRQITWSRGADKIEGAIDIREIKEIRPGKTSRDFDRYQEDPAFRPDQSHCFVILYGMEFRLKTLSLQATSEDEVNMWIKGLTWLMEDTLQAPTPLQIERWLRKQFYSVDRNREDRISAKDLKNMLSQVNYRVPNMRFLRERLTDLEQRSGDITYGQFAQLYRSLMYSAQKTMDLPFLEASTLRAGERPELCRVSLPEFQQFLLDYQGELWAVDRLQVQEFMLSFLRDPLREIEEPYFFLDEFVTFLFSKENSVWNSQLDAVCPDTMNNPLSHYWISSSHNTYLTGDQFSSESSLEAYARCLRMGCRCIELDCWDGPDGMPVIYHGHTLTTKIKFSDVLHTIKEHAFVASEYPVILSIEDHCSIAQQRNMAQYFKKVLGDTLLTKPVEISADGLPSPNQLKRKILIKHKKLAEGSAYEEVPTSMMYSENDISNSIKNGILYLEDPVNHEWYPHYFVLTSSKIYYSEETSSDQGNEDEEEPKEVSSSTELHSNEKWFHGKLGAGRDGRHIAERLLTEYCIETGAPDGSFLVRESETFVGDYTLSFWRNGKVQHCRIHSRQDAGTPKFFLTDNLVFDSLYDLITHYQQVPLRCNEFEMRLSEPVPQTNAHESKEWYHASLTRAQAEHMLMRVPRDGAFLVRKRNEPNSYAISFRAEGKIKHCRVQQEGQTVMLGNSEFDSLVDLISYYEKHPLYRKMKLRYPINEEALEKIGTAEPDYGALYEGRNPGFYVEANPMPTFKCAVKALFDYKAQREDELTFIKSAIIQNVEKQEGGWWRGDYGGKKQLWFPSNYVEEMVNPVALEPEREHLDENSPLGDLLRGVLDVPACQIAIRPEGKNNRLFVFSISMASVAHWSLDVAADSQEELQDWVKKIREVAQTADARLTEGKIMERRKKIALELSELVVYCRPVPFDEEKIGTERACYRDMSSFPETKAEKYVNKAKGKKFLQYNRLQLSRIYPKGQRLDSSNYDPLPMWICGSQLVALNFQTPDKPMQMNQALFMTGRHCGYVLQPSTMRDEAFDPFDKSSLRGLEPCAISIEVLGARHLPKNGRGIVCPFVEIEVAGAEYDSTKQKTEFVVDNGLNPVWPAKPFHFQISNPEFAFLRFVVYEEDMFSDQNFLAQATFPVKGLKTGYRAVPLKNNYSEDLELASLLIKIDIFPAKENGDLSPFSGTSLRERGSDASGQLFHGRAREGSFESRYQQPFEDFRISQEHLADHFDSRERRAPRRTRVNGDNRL

[11] = target: 1-phosphatidylinositol 4,5-bisphosphate phosphodiesterase beta-3 (Homo sapiens, UniProt Q01970); assay: Fluorescence-based biochemical high throughput dose response assay to identify inhibitors of phospholipase C isozymes (PLC-B3).
Chain of 1-phosphatidylinositol 4,5-bisphosphate phosphodiesterase beta-3 (Q01970 whole entry): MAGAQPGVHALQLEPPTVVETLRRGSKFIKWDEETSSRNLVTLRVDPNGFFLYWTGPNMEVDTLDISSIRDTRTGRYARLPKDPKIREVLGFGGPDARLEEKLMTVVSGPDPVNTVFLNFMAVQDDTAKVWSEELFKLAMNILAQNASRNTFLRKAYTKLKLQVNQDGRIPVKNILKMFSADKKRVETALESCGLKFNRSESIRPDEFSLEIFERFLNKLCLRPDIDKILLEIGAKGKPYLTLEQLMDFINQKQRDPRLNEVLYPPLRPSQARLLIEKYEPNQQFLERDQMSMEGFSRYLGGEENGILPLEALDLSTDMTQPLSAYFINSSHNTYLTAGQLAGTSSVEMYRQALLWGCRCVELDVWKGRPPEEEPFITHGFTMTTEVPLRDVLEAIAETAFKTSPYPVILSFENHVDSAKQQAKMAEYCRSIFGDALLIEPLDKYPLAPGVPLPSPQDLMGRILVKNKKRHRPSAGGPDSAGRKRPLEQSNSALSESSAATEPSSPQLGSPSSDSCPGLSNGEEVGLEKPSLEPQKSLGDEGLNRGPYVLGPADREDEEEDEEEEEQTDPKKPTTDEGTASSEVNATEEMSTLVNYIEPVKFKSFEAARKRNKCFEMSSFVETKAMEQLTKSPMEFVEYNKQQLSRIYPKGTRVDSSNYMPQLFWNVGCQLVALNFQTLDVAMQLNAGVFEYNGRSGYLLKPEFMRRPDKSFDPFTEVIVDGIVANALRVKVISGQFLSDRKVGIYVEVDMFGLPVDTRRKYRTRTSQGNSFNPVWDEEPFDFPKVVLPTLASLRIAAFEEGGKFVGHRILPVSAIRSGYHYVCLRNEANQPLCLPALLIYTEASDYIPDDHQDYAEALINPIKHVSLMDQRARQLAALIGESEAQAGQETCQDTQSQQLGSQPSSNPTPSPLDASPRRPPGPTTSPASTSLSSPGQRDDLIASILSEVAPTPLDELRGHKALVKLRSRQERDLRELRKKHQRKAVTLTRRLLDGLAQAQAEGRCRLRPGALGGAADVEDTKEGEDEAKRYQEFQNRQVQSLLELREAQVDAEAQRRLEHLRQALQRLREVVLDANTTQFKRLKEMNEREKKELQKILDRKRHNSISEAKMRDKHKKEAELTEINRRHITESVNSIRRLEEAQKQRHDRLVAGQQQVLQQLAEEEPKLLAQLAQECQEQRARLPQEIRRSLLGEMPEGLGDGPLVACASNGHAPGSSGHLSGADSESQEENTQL

[12] = P. falciparum 3D7-ScDHODH growth inhibitors, dose response, SYBR Green, dry powder samples (AID 1159570); assay type: functional, cell-based;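 note: parasite growth measured after 72 hours of compound exposure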
[13] = HepG2 cell cytotoxicity, dose response, cytotoxicity control, cherry-picked samples (AID 1159577); assay type: functional, cell-based
[14] = PAX2 cell-based inhibition, dose response, selectivity assay for PAX8 inhibitor project, plate reader, dry powder samples (AID 743048); assay type: functional;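 note: HEK293 cells carrying a WT1 promoter luciferase reporter driven by expressed Pax2; potency is for inhibition of Pax2 driven reporter signal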
[15] = cytotoxicity in OVCAR4 cells, dose response, cytotoxicity control for PAX8 inhibitor project, cell-based, plate reader, dry powder, SA11 (AID 743150); assay type: functional; details: OVCAR-4
[16] = PAX5 activity inhibitors, dose response, selectivity assay for PAX8 inhibitor project, cell-based, plate reader, dry powder samples (AID 743047); assay type: functional;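 note: HEK293 cells carrying a Pax5 driven CD19 promoter luciferase reporter; potency of inhibitors that lower reporter luminescence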
[17] = P. falciparum ATP4 D1247Y mutant growth inhibitors, dose response, NITD609-resistant line, SYBR Green, dry powder (AID 1159571); assay type: functional, cell-based;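 note: parasites synchronized at ring stage by sorbitol before testing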
[18] = P. falciparum Dd2 growth inhibitors, dose response, SYBR Green, cherry-picked samples (AID 1159567); assay type: functional, cell-based
[19] = cytotoxicity in COV434 cells, dose response, cytotoxicity control for PAX8 inhibitor project, cell-based, plate reader, dry powder, SA7 (AID 743145); assay type: functional
[20] = inhibitors of clade B AD8 Env fusion, dose response, cell-based, cherry-pick (AID 652062); assay type: functional;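 note: luciferase signal from cell-cell fusion driven by HIV-1 clade B AD8 Env; potency is for inhibitors of fusion seen as a drop in luminescence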
[21] = ZM109 Env clade C HIV-1 fusion inhibitors, dose response, HeLa effector, CEM target cells, luciferase, cherry-pick (AID 652058); assay type: functional, cell-based
[22] = P. falciparum Dd2 growth inhibitors, dose response, SYBR Green, dry powder samples (AID 1159566); assay type: functional, cell-based;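 note: potency for growth inhibition with lower SYBR green DNA signal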
[23] = cytotoxicity dependent on PAX8, dose response, cell-based, plate reader, dry powder (AID 743049); assay type: functional
[24] = inhibitors of HIV Env-driven cell fusion, dose response, cherry-pick (AID 652057); assay type: functional, cell-based
Albumin = Albumin (Bos taurus, UniProt P02769); assay: Counterscreen for inhibitors of T-cell receptor (TCR)-CD3 interaction: Fluorescence-based biochemical high throughput dose response assay to identify inhibitors of T-cell receptor (TCR)-CD3 interaction using a TAMRA-labeled BSA probe.; assay type: functional
Chain of Albumin (P02769 whole entry): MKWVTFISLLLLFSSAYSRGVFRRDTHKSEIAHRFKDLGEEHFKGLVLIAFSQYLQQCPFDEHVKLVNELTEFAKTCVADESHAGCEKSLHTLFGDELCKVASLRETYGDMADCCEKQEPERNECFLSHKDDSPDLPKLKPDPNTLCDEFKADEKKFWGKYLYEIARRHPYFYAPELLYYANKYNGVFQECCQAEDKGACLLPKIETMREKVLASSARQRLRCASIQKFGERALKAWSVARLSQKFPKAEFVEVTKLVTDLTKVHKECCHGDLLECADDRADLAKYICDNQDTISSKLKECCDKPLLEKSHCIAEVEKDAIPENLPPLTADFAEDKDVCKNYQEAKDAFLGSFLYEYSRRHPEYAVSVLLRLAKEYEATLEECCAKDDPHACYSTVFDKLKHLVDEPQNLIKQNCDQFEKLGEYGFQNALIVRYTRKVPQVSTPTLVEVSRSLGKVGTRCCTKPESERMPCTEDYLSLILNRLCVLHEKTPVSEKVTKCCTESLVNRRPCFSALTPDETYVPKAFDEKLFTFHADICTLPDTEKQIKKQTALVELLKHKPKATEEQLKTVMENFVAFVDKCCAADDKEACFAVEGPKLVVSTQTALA

- EC50 [1]: 0.323 µM (active)
- EC50 (Mu-type opioid receptor): 92.4 µM (inactive)
SMILES: Fc1ccc(F)c(CN2CCN(c3ncccn3)CC2)c1

- IC50 (Protein Wnt-3a): > 21.8 µM (inactive)
SMILES: O=C(Nc1cc(N2CCCCC2)ncn1)c1cccs1

SMILES: CC(C)N1C[C@H](CN(C)Cc2ccc(Cl)cc2)Oc2c(NC(=O)c3ccncc3)cccc2C1=O
- AC50 [2]: 0.00393 µM (active)

- AC50 (Caspase-6): 14.3 µM (active)
SMILES: O=[N+]([O-])c1cc(F)c2cccnc2c1O
- IC50 [3]: 12 µM (active)

SMILES: Cc1ccc(-n2ncc3c(SCC(N)=O)ncnc32)cc1C
- AC50 (HeLa): > 52 µM (inactive)

SMILES: CC(C)N1CC2(CN(CCc3ccccc3)C2)Oc2c(NC(=O)c3ccncc3)cccc2C1=O
- AC50 [2]: 0.252 µM (active)

SMILES: COc1ccccc1C#Cc1ccc([C@H]2[C@H](C#N)N(C(=O)C3CC3)[C@H]2CO)cc1
- AC50 [4]: 15.1 µM (active)
- AC50 (Paired box protein Pax-8): 6.37 µM (active)
- AC50 [5]: 0.698 µM (active)
- AC50 [6]: 1.68 µM (active)
- AC50 [7]: 10.7 µM (active)

SMILES: NC(=O)c1nnn(Cc2cc(Cl)c(C(=O)c3ccc(Cl)cc3)c(Cl)c2)c1N [CARBOXYAMIDOTRIAZOLE]
- EC50 (cells): > 29.9 µM (inactive)
- AC50 (Cytochrome P450 2C9): inconclusive
- IC50 [8]: 9.21 µM (active)
- IC50 (Galanin receptor type 3): 0.303 µM (active)

- IC50 (Protein Wnt-3a): > 21.8 µM (inactive)
SMILES: CC(C)(C)Nc1cc(NC(=O)c2ccccc2)ncn1

- IC50 (Interleukin-8): 17.9 µM (inactive)
- AC50 [9]: 4.11 µM (active)
SMILES: Cc1ccc(-c2onc3ccc(C(=O)/C=C/N(C)C)cc23)cc1

- IC50 [10]: > 122 µM (inactive)
- IC50 [11]: > 122 µM (inactive)
SMILES: COc1ccc(CCN(C)C(=O)CN2C(=O)NC3(CCCc4ccccc43)C2=O)cc1OC (configuration not stated)

SMILES: COc1cccc(C#Cc2ccc([C@H]3[C@@H](CO)N(C(=O)C4CCCC4)[C@H]3C#N)cc2)c1
- AC50 (Paired box protein Pax-8): 3.15 µM (active)
- AC50 [12]: 0.409 µM (active)
- AC50 [13]: > 39 µM (inactive)
- AC50 [14]: 30.8 µM (active)
- AC50 [15]: 37.9 µM (active)
- AC50 [16]: 30.1 µM (active)
- AC50 [17]: 0.454 µM (active)
- AC50 [18]: 0.997 µM (active)
- AC50 [19]: 0.00447 µM (active)
- AC50 [20]: 20 µM (active)
- AC50 [21]: 17 µM (active)
- AC50 [22]: 0.212 µM (active)
- AC50 [23]: 5.77 µM (active)
- AC50 [24]: 17.8 µM (active)

- IC50 (Albumin): > 94.2 µM (inactive)
SMILES: CNC(=S)NNC(=O)c1cccn(Cc2ccccc2)c1=O
